{
  "source": "patent US20230364230A1",
  "about": "“COMBINATION THERAPY FOR CANCER” (ENGMAB SÀRL, priority 2020, published 2023)",
  "tested_on": "H929 target cells",
  "test": "Protein 1 induced ADCC after pretreatment of PBMCs with single concentration, Protein 1 dose range",
  "assay_type": "cell-based, human",
  "conditions": "PBMCs pretreated 24 or 48 hours with 0.1 nM CC-92480 or 1 nM CC-220; Protein 1 0 nM to 10 nM",
  "description": "PBMCs from a healthy donor were preincubated for 24 hours or 48 hours in the presence of CC-92480 at 0.1 nM or CC-220 (iberdomide) at 1 nM or a DMSO control. After pretreatment, PBMCs were incubated for an additional 18 hours or overnight in the presence of H929 target cells with concentrations of Protein 1 ranging from 0 nM to 10 nM. Samples were analyzed via flow cytometry for H929 depletion. Specific lysis was calculated as following: (1−((test sample H929 count)/(H929 count in DMSO control without Protein 1)))*100. PBMCs were pretreated 0.1 nM of CC-92480 or 1 nM of CC-220 or DMSO control for either 24 hours (FIG. 13A) or 48 hours (FIG. 13B). After pretreatment, PBMCs were cultured with H929 target cells and 0 nM to 10 nM of Protein 1 overnight. H929 lysis was determined via flow cytometry. Pretreatment of PBMCs with single concentration of CC-92480 or CC-220 enhanced Protein 1 induced ADCC.",
  "data": [
    {"smiles": "O=C1CC[C@H](N2Cc3c(OCc4ccc(CN5CCOCC5)cc4)cccc3C2=O)C(=O)N1", "note": "[CC-220, (S)-3-(4-((4-(Morpholinomethyl)benzyl)oxy)-1-oxoisoindolin-2-yl)piperidine-2,6-dione]", "values": [
      {"measurement": "Protein 1 induced ADCC (H929 lysis)", "value": "enhanced"}
    ]}
  ]
}
